Measured values as given in ChEMBL document CHEMBL4616710, “Discovery of a Potent Anticancer Agent PVHD303 with in Vivo Activity” (ACS Med Chem Lett, 2020).
Values belong to the compound of their own block, whether it stands above or below them.

Legend:
[1] = system: A549; test: Antiproliferative activity against human A549 cells assessed as cell growth inhibition incubated for 72 hrs by CellTiter96 Aqueous one solution cell proliferation assay; format: functional, cell-based; details: A549, 72 h
[2] = system: A549; test: Antiproliferative activity against human A549 cells assessed as cell growth inhibition; format: functional, cell-based
[3] = system: HeLa; test: Antimitotic activity against human HeLa cells assessed as proportion of cells with bipolar spindles at 4 nM measured after 16 to 18 hrs by DAPI-staining based fluorescence microscopy analysis relative to control; format: functional
[4] = system: HeLa; test: Antimitotic activity against human HeLa cells assessed as proportion of cells with bipolar spindles at 8 nM measured after 16 to 18 hrs by DAPI-staining based fluorescence microscopy analysis relative to control; format: functional
[5] = system: HeLa; test: Antimitotic activity against human HeLa cells assessed as proportion of cells with bipolar spindles at 12 nM measured after 16 to 18 hrs by DAPI-staining based fluorescence microscopy analysis relative to control; format: functional
[6] = system: HeLa; test: Antimitotic activity against human HeLa cells assessed as proportion of cells with bipolar spindles at 16 nM measured after 16 to 18 hrs by DAPI-staining based fluorescence microscopy analysis relative to control; format: functional
[7] = system: HeLa; test: Antimitotic activity against human HeLa cells assessed as proportion of cells with irregular spindles at 4 nM measured after 16 to 18 hrs by DAPI-staining based fluorescence microscopy analysis relative to control; format: functional
[8] = system: HeLa; test: Antimitotic activity against human HeLa cells assessed as proportion of cells with irregular spindles at 8 nM measured after 16 to 18 hrs by DAPI-staining based fluorescence microscopy analysis relative to control; format: functional
[9] = system: HeLa; test: Antimitotic activity against human HeLa cells assessed as proportion of cells with irregular spindles at 12 nM measured after 16 to 18 hrs by DAPI-staining based fluorescence microscopy analysis relative to control; format: functional
[10] = system: HeLa; test: Antimitotic activity against human HeLa cells assessed as proportion of cells with irregular spindles at 16 nM measured after 16 to 18 hrs by DAPI-staining based fluorescence microscopy analysis relative to control; format: functional
[11] = system: HeLa; test: (§1) Antimitotic activity against human HeLa cells assessed as proportion of cells with microtubule disruption around the condensed chromosomes and unseparated centrosome at 4 nM measured after 16 to 18 hrs by anti-alpha-tubulin/anti-gamma-tubulin antibodies based immunostaining/DAPI-staining based fluorescence microscopy analysis relative to control; format: functional
[12] = system: HeLa; test: as §1, with “8” for “4”; format: functional
[13] = system: HeLa; test: as §1, with “12” for “4”; format: functional
[14] = system: HeLa; test: as §1, with “16” for “4”; format: functional
[15] = system: HeLa; test: Antimitotic activity against human HeLa cells assessed as proportion of cells with diffuse alpha-tubulin at 4 nM measured after 16 to 18 hrs by DAPI-staining based fluorescence microscopy analysis relative to control; format: functional
[16] = system: HeLa; test: Antimitotic activity against human HeLa cells assessed as proportion of cells with diffuse alpha-tubulin at 8 nM measured after 16 to 18 hrs by DAPI-staining based fluorescence microscopy analysis relative to control; format: functional
[17] = system: HeLa; test: Antimitotic activity against human HeLa cells assessed as proportion of cells with diffuse alpha-tubulin at 12 nM measured after 16 to 18 hrs by DAPI-staining based fluorescence microscopy analysis relative to control; format: functional
[18] = system: HeLa; test: Antimitotic activity against human HeLa cells assessed as proportion of cells with diffuse alpha-tubulin at 16 nM measured after 16 to 18 hrs by DAPI-staining based fluorescence microscopy analysis relative to control; format: functional
[19] = system: HeLa; test: Antimitotic activity against human HeLa cells assessed as proportion of mitotic cells at 4 nM measured after 16 to 18 hrs by DAPI-staining based fluorescence microscopy analysis relative to control; format: functional
[20] = system: HeLa; test: Antimitotic activity against human HeLa cells assessed as proportion of mitotic cells at 8 nM measured after 16 to 18 hrs by DAPI-staining based fluorescence microscopy analysis relative to control; format: functional
[21] = system: HeLa; test: Antimitotic activity against human HeLa cells assessed as proportion of mitotic cells at 12 nM measured after 16 to 18 hrs by DAPI-staining based fluorescence microscopy analysis relative to control; format: functional
[22] = system: HeLa; test: Antimitotic activity against human HeLa cells assessed as proportion of mitotic cells at 16 nM measured after 16 to 18 hrs by DAPI-staining based fluorescence microscopy analysis relative to control; format: functional
[23] = system: HCT-116; test: Antitumor activity against human HCT116 cells xenografted in BALB/c nude mouse assessed as tumor growth inhibition at 10 mg/kg, iv qd administered on day 1,3,5,8,10,12,15,17,19 and measured on day 22 by caliper method relative to control; format: functional; details: HCT-116, iv, read-out: TGI
[24] = system: HCT-116; test: Antitumor activity against human HCT116 cells xenografted in BALB/c nude mouse assessed as tumor growth inhibition at 20 mg/kg, iv qd administered on day 1,3,5,8,10,12,15,17,19 and measured on day 22 by caliper method relative to control; format: functional; details: HCT-116, iv, read-out: TGI
[25] = system: HCT-116; test: Antitumor activity against human HCT116 cells xenografted in iv dosed BALB/c nude mouse assessed as tumor growth inhibition administered once daily on day 1,3,5,8,10,12,15,17,19 and measured on day 22 by caliper method; format: functional, organism-based
[26] = system: HCT-116; test: Antiproliferative activity against human HCT116 cells assessed as cell growth inhibition incubated for 72 hrs by CellTiter96 Aqueous one solution cell proliferation assay; format: functional, cell-based; details: HCT-116, 72 h

SMILES: COc1ccc(C(C)(O)c2nc(-c3ccc(O)cc3)nc3ccccc23)cc1 (centres undefined)
IC50 [1]: 1410 nM

SMILES: COc1ccc(C(C)(O)c2nc(N3CCC(O)CC3)nc3ccccc23)cc1 (centres undefined)
IC50 [1]: 9320 nM

SMILES: COc1ccc(C(C)(O)c2ncnc3cc(C)ccc23)cc1 (centres undefined)
IC50 [1]: > 25000 nM

SMILES: COC(=O)Nc1nc2cc(C(=O)c3cccs3)ccc2[nH]1 [NOCODAZOLE]
IC50 [1]: 272 nM

SMILES: COc1ccc(C(C)(O)c2ncnc3ccc(OC)cc23)cc1 (centres undefined)
IC50 [1]: 5160 nM

SMILES: COc1ccc(C(C)(O)c2ncnc3cc(OC)ccc23)cc1 (centres undefined)
IC50 [1]: > 25000 nM

SMILES: COc1ccc(C(C)(O)c2nc(N3CCC(F)(F)CC3)nc3ccccc23)cc1 (centres undefined)
IC50 [1]: 4910 nM

SMILES: COc1ccc(C(C)(O)c2nc(N3CCC3)nc3ccccc23)cc1 (centres undefined)
IC50 [1]: 1100 nM

SMILES: COc1ccc(C(C)(O)c2nc(N3CCC(OC)CC3)nc3ccccc23)cc1 (centres undefined)
IC50 [1]: 1220 nM

SMILES: COc1ccc(C(C)(O)c2nc(N3CCOCC3)nc3ccccc23)cc1 (centres undefined)
IC50 [2]: 140 nM

SMILES: COc1ccc(C(C)(O)c2nc(N3CC3)nc3ccccc23)cc1 (centres undefined)
IC50 [1]: 220 nM

SMILES: COc1ccc(C(C)(O)c2nc(N3CCSCC3)nc3ccccc23)cc1 (centres undefined)
IC50 [1]: 2440 nM

SMILES: COc1ccc(C(C)(O)c2nc(-c3ccc(C(F)(F)F)cc3)nc3ccccc23)cc1 (centres undefined)
IC50 [1]: 1590 nM

SMILES: COc1ccc(C(C)(O)c2ncnc3cccc(F)c23)cc1 (centres undefined)
IC50 [1]: 12000 nM

SMILES: COc1ccc(C(C)(O)c2ncnc3c(OC)cccc23)cc1 (centres undefined)
IC50 [1]: 2100 nM

SMILES: COc1ccc(C(C)(O)c2nc(-c3coc(C=O)c3)nc3ccccc23)cc1 (centres undefined)
IC50 [1]: 1010 nM

SMILES: COc1ccc(C(C)(O)c2ncnc3c(C)cccc23)cc1 (centres undefined)
IC50 [1]: 1560 nM

SMILES: COc1ccc(C(C)(O)c2nc(N3CCC(Cl)CC3)nc3ccccc23)cc1 (centres undefined)
IC50 [1]: 3670 nM

SMILES: COc1ccc(C(C)(O)c2ncnc3ccc(C)cc23)cc1 (centres undefined)
IC50 [1]: 1100 nM

SMILES: COc1ccc(C(C)(O)c2nc(-c3ccc4c(c3)OCO4)nc3ccccc23)cc1 (centres undefined)
IC50 [1]: 1170 nM

SMILES: COc1ccc(C(C)(O)c2nc(N3CCCC3)nc3ccccc23)cc1 (centres undefined)
IC50 [1]: 1260 nM

SMILES: COc1ccc(C(C)(O)c2ncnc3cc(F)ccc23)cc1 (centres undefined)
IC50 [1]: 4670 nM

More lines, main results first:

IC50 [1]: 60 nM
SMILES: COc1ccc(C(C)(O)c2nc(-c3cccnc3)nc3ccccc23)cc1 (centres undefined)

IC50 [1]: 48 nM
SMILES: COc1ccc(C(C)(O)c2nc(-c3cccs3)nc3ccccc23)cc1 (centres undefined)

IC50 [1]: 870 nM
SMILES: COc1ccc(C(C)(O)c2ncnc3cc(Cl)ccc23)cc1 (centres undefined)

IC50 [1]: 13 nM
SMILES: COc1ccc(C(C)(O)c2nc(-c3ccc(C#N)s3)nc3ccccc23)cc1 (centres undefined)

IC50 [1]: 27 nM
SMILES: C=Cc1nc(C(C)(O)c2ccc(OC)cc2)c2ccccc2n1 (centres undefined)

IC50 [1]: 52 nM
SMILES: COc1ccc(C(C)(O)c2nc(-c3ccsc3C(C)=O)nc3ccccc23)cc1 (centres undefined)

IC50 [1]: 580 nM
SMILES: COc1ccc(C(C)(O)c2nc(N3CCSC3)nc3ccccc23)cc1 (centres undefined)

IC50 [1]: 637 nM
SMILES: COc1ccc(C(C)(O)c2nc(C3CC3)nc3ccccc23)cc1 (centres undefined)

IC50 [1]: 254 nM
SMILES: COc1ccc(C(C)(O)c2nc(-c3cn[nH]c3)nc3ccccc23)cc1 (centres undefined)

IC50 [1]: 13 nM
IC50 [26]: 13 nM
SMILES: COc1ccc(C(C)(O)c2nc(-c3ccoc3)nc3ccccc23)cc1 (centres undefined)
Activity [3]: 100%
Activity [4]: 50%
Activity [5]: 0%
Activity [6]: 0%
Activity [7]: 0%
Activity [8]: 44.2%
Activity [9]: 0%
Activity [10]: 0%
Activity [11]: 0%
Activity [12]: 5.8%
Activity [13]: 67%
Activity [14]: 57%
Activity [15]: 0%
Activity [16]: 0%
Activity [17]: 33%
Activity [18]: 43%
Activity [19]: 50%
Activity [20]: 52%
Activity [21]: 52%
Activity [22]: 60%
inhibition in vivo at 10 mg/kg [23]: 24.6%
inhibition in vivo at 20 mg/kg [24]: 62.9%
TGI [25]: Dose-dependent effect

IC50 [1]: 380 nM
SMILES: C/C=C\c1nc(C(C)(O)c2ccc(OC)cc2)c2ccccc2n1 (centres undefined)

IC50 [1]: 240 nM
SMILES: COc1ccc(C(C)(O)c2ncnc3c(Cl)cccc23)cc1 (centres undefined)

IC50 [1]: 36 nM
SMILES: COc1ccc(C(C)(O)c2nc(-c3ccco3)nc3ccccc23)cc1 (centres undefined)

IC50 [1]: 223 nM
SMILES: COc1ccc(C(C)(O)c2nc(-c3ccccc3O)nc3ccccc23)cc1 (centres undefined)

IC50 [1]: 21 nM
SMILES: CC[C@]1(O)C[C@@H]2CN(CCc3c([nH]c4ccccc34)[C@@](C(=O)OC)(c3cc4c(cc3OC)N(C)[C@H]3[C@@](O)(C(=O)OC)[C@H](OC(C)=O)[C@]5(CC)C=CCN6CC[C@]43[C@@H]65)C2)C1 [VINBLASTINE]

IC50 [1]: 220 nM
SMILES: COc1ccc(C(C)(O)c2nc(N3CC=CC3)nc3ccccc23)cc1 (centres undefined)

IC50 [1]: 710 nM
SMILES: COc1ccc(C(C)(O)c2nc(N3CC=CCC3)nc3ccccc23)cc1 (centres undefined)

IC50 [1]: 50 nM
SMILES: COc1ccc(C(C)(O)c2nc(N)nc3ccccc23)cc1 (centres undefined)

IC50 [1]: 48 nM
SMILES: COc1ccc(C(C)(O)c2nc(-c3ccc(F)cc3)nc3ccccc23)cc1 (centres undefined)

IC50 [1]: 895 nM
SMILES: COc1ccc(C(C)(O)c2nc(-c3ccc(Cl)s3)nc3ccccc23)cc1 (centres undefined)

IC50 [1]: 80 nM
SMILES: COc1ccc(C(C)(O)c2ncnc3ccc(Cl)cc23)cc1 (centres undefined)

IC50 [1]: 50 nM
SMILES: COc1ccc(C(C)(O)c2nc(Br)nc3ccccc23)cc1 (centres undefined)

IC50 [1]: 20 nM
SMILES: CNc1nc(C(C)(O)c2ccc(OC)cc2)c2ccccc2n1 (centres undefined)

IC50 [1]: 50 nM
SMILES: COc1ccc(C(C)(O)c2nc(-n3cccc3)nc3ccccc23)cc1 (centres undefined)

IC50 [1]: 350 nM
SMILES: COc1ccc(C(C)(O)c2ncnc3ccc(F)cc23)cc1 (centres undefined)

IC50 [1]: 59 nM
SMILES: COc1ccc(C(C)(O)c2nc(-c3c(C)noc3C)nc3ccccc23)cc1 (centres undefined)

IC50 [1]: 430 nM
SMILES: COc1ccc(C(C)(O)c2ncnc3c(F)cccc23)cc1 (centres undefined)

IC50 [1]: 760 nM
SMILES: COc1ccc(C(C)(O)c2nc(N3CCC(F)CC3)nc3ccccc23)cc1 (centres undefined)
